Laboratory results from patent US11213518B2, “Ligands of the mu, kappa, and delta opioid receptors” (The Board of Trustees of the Leland Stanford Junior …, priority 2017, dated 2022).
“Also recorded” adds a separate entry of the source. Like-named read-outs stand apart in the source and are kept apart here.

Tests used:
[1] = molecular target: T1, DOR-1 (Mus musculus, UniProt P32300); test: Competition binding against 125I-IBNtxA, DOR-1 CHO membranes; conditions: vs 125I-IBNtxA (0.1 nM)
T1 construct: expressed in transfected cells
Experimental: (§1) FIGS. 7A-7C show competition assays at MOR-1, KOR-1 and DOR-1 against FMP4. Competition studies were performed with FMP4 against ^125I-IBNtxA (0.1 nM) in membranes from CHO cells stably expressing the indicated cloned mouse opioid receptors Each figure is a representative experiment that has been independently replicated at least three times. Error bars represent the SEM of triplicate samples. Error bars that cannot be seen are smaller than the size of the symbol.

[2] = molecular target: T2, MOR-1 (Mus musculus, UniProt P42866); test: Competition binding against 125I-IBNtxA, MOR-1 CHO membranes; design: expressed in transfected cells; conditions: vs 125I-IBNtxA (0.1 nM)
[3] = molecular target: T2, MOR-1; test: Screening of MOR-1 binders, single-dose inhibition of 125IBNtxA specific binding; design: expressed in transfected cells; host or cells: CHO cells; conditions: single dose 10 μM
From the text: Each panel is a representative experiment that has been independently replicated at least three times.

[4] = molecular target: T3, KOR-1 (Mus musculus, UniProt P33534); test: Competition binding against 125I-IBNtxA, KOR-1 CHO membranes; conditions: vs 125I-IBNtxA (0.1 nM), cloned mouse receptor, ± SEM
T3 construct: expressed in transfected cells
Experimental: as §1

[5] = molecular target: T2, MOR-1; test: [35S]-GTPγS assay in MOR-1 expressing CHO cells; assay type: biochemical; design: expressed in transfected cells; host or cells: CHO cells; conditions: for Functional character in [35S]GTPγS assay at MOR-1: MOR-1 expressing CHO cells, compared with full agonist DAMGO 100 nM
From the text: Results are pooled from 3 independent replications and are expressed as mean±SEM.

[6] = cloned mouse receptor, ± SEM, read-out: Binding Data-Ki MOR-1
[7] = value in μM, read-out: Binding Data-Ki / affinity MOR-1 (μOR)

SMILES | Ki ([1]; cloned mouse receptor, ± SEM) [µM] | Ki [2, 6] [µM] | Ki [2, 7] [µM] | inhibition at 10 µM [3] [%] | Ki [4] [µM] | Antagonism of GTPγS stimulation by 100 nM DAMGO ([5]; FMP4 at 30 μM) | Functional character in [35S]GTPγS assay at MOR-1 [5] | Functional character in [35S]GTPγS assay at MOR-1 ([5]; listed as FMP 4) | Stimulation of GTPγS binding ([5]; doses 1, 10 and 30 μM, ceiling effect, p<0.0001 vs control) | Ki ([1]; value in μM) [µM]
Cc1ccccc1OCCCCCN1CCCCC1 [FMP1, 1-piperidino-5-(o-tolyloxy)pentane] | 17.9 ± 7.61 | 0.841 ± 0.242 | < 10 | ≥ 30 | 7.39 ± 2.38 | – | – | – | – | –
Cc1ccccc1OCCCCCCc1c(C)n[nH]c1C [FMP4, 3,5-dimethyl-4-[6-(o-tolyloxy)hexyl]-1H-pyrazole] | 8.14 ± 1.4 | 3.22 ± 0.153 | 3.2 | ≥ 30 | 2.5 ± 0.523 | antagonized the GTPγS stimulation of 100 nM DAMGO | weak partial agonism; also recorded: partial agonist | weak MOR-1 partial agonist | stimulates GTPγS binding | –
Cc1cccc(C)c1OCCCCCN1CCN(C)CC1 [FMP21] | – | – | > 30 | – | 5.5 ± 4.19 | – | – | – | – | > 30
COc1cccc(OCCCCCN2CCCCC2)c1 [FMP6] | – | – | > 30 | – | 6.94 ± 1.97 | – | – | – | – | > 30
Cc1ccc(OCCCCCCc2c(C)n[nH]c2C)cc1 [FMP16, 3,5-dimethyl-4-[6-(p-tolyloxy)hexyl]-1H-pyrazole] | 9.06 ± 0.566 | 1.75 ± 0.492 | < 10 | ≥ 30 | 4.92 ± 2.24 | – | – | – | – | –
Cc1ccccc1OCCCCCN1CCOCC1 [FMP30] | 12.8 ± 0.856 | 11.3 ± 2.26 | – | – | 6.01 ± 2.16 | – | – | – | – | –
